Source: patent US8937167B2 (Washington University, priority 2009, dated 2015)
Like-named read-outs stand apart in the source and are kept apart here.

Biological target: FimH (Escherichia coli, UniProt Q1R2J4)
Conditions: for HAI Titer EC>50: Table 21
[1] = Table 19, Examples 30-36 numbering
[2] = Table 18, Examples 30-36 numbering
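Also: hemagglutination inhibition of guinea pig erythrocytes agglutinated by type 1 piliated uropathogenic E. coli via FimH mannose binding, quantified through serial dilutions of compound.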

Compound	HAI Titer EC>90 [µM]	also measured
OCC1OC(Oc2cc(F)c(F)c(F)c2)C(O)C(O)C1O (stereo not shown) [Compound 1ZFH282, 2-(hydroxymethyl)-6-(3,4,5-trifluorophenoxy)tetrahydropyran-3,4,5-triol]	125.000	–
NC(=O)Nc1csc(-c2ccc(O[C@H]3O[C@H](CO)[C@@H](O)[C@H](O)[C@@H]3O)cc2)c1 [Compound 13c, [5-[4-[(2R,3S,4S,5S,6R)-3,4,5-Trihydroxy-6-(hydroxymethyl)tetrahydropyran-2-yl]oxyphenyl]-3-thienyl]urea]	–	HAI Titer EC>90 [1]: 1.0 µM
O=C(NCCO)c1cccc(-c2ccc(O[C@H]3O[C@H](CO)[C@@H](O)[C@H](O)[C@@H]3O)cc2)c1 [Compound 10a, N-(2-Hydroxyethyl)-3-[4-[(2R,3S,4S,5S,6R)-3,4,5-trihydroxy-6-(hydroxymethyl)tetrahydropyran-2-yl]oxyphenyl]benzamide]	–	HAI Titer EC>90 [2]: 0.50 µM
COc1cccc(-c2ccc(OC3OC(CO)C(O)C(O)C3O)cc2)c1 (stereo not shown) [Compound 3ZFH190, 2-(hydroxymethyl)-6-[4-(3-methoxyphenyl)phenoxy]tetrahydropyran-3,4,5-triol]	1.500	–
NCCNC(=O)c1cccc(-c2ccc(O[C@H]3O[C@H](CO)[C@@H](O)[C@H](O)[C@@H]3O)cc2)c1 [Compound 10b, N-(2-Aminoethyl)-3-[4-[(2R,3S,4S,5S,6R)-3,4,5-trihydroxy-6-(hydroxymethyl)tetrahydropyran-2-yl]oxyphenyl]benzamide]	–	HAI Titer EC>90 [2]: 3.0 µM; fold drop in HAI activity (relative to methyl amide 2): 6 fold
N#Cc1ccccc1OC1OC(CO)C(O)C(O)C1O (stereo not shown) [Compound 2ZFH108, 2-[3,4,5-trihydroxy-6-(hydroxymethyl)tetrahydropyran-2-yl]oxybenzonitrile]	6.000	–
OC[C@@H]1OC(Oc2ccc(-c3ccc4ccncc4c3)cc2)[C@H](O)[C@@H](O)[C@@H]1O (stereo partly drawn) [Compound 4ZFH275, (2S,3S,4S,5R)-2-(hydroxymethyl)-6-[4-(7-isoquinolyl)phenoxy]tetrahydropyran-3,4,5-triol]	0.750	HAI Titer EC>50 (ZFH/JWJ codes): 0.750 µM; HAI Titer EC>90 (Table 22, ZFH/JWJ codes): 0.750 µM
COC(=O)c1ccc(-c2cccc(OC3OC(CO)C(O)C(O)C3O)c2)cc1 (stereo not shown) [Compound 1ZFH265, methyl 4-[3-[3,4,5-trihydroxy-6-(hydroxymethyl)tetrahydropyran-2-yl]oxyphenyl]benzoate]	6.000	–
COC(=O)c1cc(-c2ccc(OC3OC(CO)C(O)C(O)C3O)cc2)ccc1NC(C)=O (stereo not shown) [Compound 4ZFH308]	–	HAI Titer EC>50 (ZFH/JWJ codes): 0.250 µM
OCc1ccccc1-c1ccc(OC2OC(CO)C(O)C(O)C2O)cc1 (stereo not shown) [Compound 3ZFH114, 2-(hydroxymethyl)-6-[4-[2-(hydroxymethyl)phenyl]phenoxy]tetrahydropyran-3,4,5-triol]	16.000	–
CC(=O)Nc1ccccc1OC1OC(CO)C(O)C(O)C1O (stereo not shown) [Compound 1ZFH95, N-[2-[3,4,5-trihydroxy-6-(hydroxymethyl)tetrahydropyran-2-yl]oxyphenyl]acetamide]	125.000	–
OCC1OC(Oc2ccc(-c3cccnc3)cc2)C(O)C(O)C1O (stereo not shown) [Compound 3ZFH93, 2-(hydroxymethyl)-6-[4-(3-pyridyl)phenoxy]tetrahydropyran-3,4,5-triol]	2.000	–
O=C(c1ccccc1)c1cccc(OC2OC(CO)C(O)C(O)C2O)c1 (stereo not shown) [Compound 1ZFH263, phenyl-[3-[3,4,5-trihydroxy-6-(hydroxymethyl)tetrahydropyran-2-yl]oxyphenyl]methanone]	8.000	–
CNC(=O)c1cncc(-c2ccc(OC3OC(CO)C(O)C(O)C3O)cc2)c1 (stereo not shown)	0.500	–
COC(=O)c1cccc(-c2ccc(OC3OC(CO)C(O)C(O)C3O)c(Cl)c2)c1 (stereo not shown) [Compound 4ZFH49, methyl 3-[3-chloro-4-[3,4,5-trihydroxy-6-(hydroxymethyl)tetrahydropyran-2-yl]oxy-phenyl]benzoate]	0.032	–
COC(=O)c1cccc(-c2ccc(O[C@H]3O[C@H](CO)[C@@H](O)[C@H](O)[C@@H]3O)c(F)c2)c1 [Compound 4a, Methyl 3-[3-fluoro-4-[(2R,3S,4S,5S,6R)-3,4,5-trihydroxy-6-(hydroxymethyl)tetrahydropyran-2-yl]oxy-phenyl]benzoate]	–	HAI Titer EC>90 (Table 17, Examples 30-36 numbering): 0.75 µM
CNS(=O)(=O)c1cccc(-c2ccc(OC3OC(CO)C(O)C(O)C3O)cc2)c1 (stereo not shown) [Compound 3ZFH179, N-methyl-3-[4-[3,4,5-trihydroxy-6-(hydroxymethyl)tetrahydropyran-2-yl]oxyphenyl]benzenesulfonamide]	1.000	–
O=[N+]([O-])c1ccc(OC2OC(CO)C(O)C(O)C2O)cc1 (stereo not shown) [PNP-mannoside, reference compound]	31.000	–
CN1CCN(C(=O)c2cccc(-c3ccc(OC4OC(CO)C(O)C(O)C4O)cc3)c2)CC1 (stereo not shown) [Compound 3ZFH261, (4-methylpiperazin-1-yl)-[3-[4-[3,4,5-trihydroxy-6-(hydroxymethyl)tetrahydropyran-2-yl]oxyphenyl]phenyl]methanone]	4.000	–

Compound	HAI Titer EC>90 [µM]	also measured
OCc1ccc(-c2ccc(OC3OC(CO)C(O)C(O)C3O)cc2)cc1 (stereo not shown) [Compound 3ZFH24, 2-(hydroxymethyl)-6-[4-[4-(hydroxymethyl)phenyl]phenoxy]tetrahydropyran-3,4,5-triol]	6.000	–
O=C(NCCO)c1cccc(-c2ccc(OC3OC(CO)C(O)C(O)C3O)cc2)c1 (stereo not shown) [Compound 3ZFH276, N-(2-hydroxyethyl)-3-[4-[3,4,5-trihydroxy-6-(hydroxymethyl)tetrahydropyran-2-yl]oxyphenyl]benzamide]	0.5000	–
COc1ccc(OC2OC(CO)C(O)C(O)C2O)cc1 (stereo not shown) [Compound 2ZFH176, 2-(hydroxymethyl)-6-(4-methoxyphenoxy)tetrahydropyran-3,4,5-triol]	8.000	–
NCCOCCOCCNC(=O)c1cc(-c2ccc(OC3OC(CO)C(O)C(O)C3O)cc2)cc([N+](=O)[O-])c1 (stereo not shown) [Compound 3ZFH245, N-[2-[2-(2-aminoethoxy)ethoxy]ethyl]-3-nitro-5-[4-[3,4,5-trihydroxy-6-(hydroxymethyl)tetrahydropyran-2-yl]oxyphenyl]benzamide]	0.25	–
N#Cc1ccccc1OC1OC(CO)C(O)C(O)C1O (stereo not shown) [Compound 3m]	–	EC50 (read-out: HA 50% Titer, Table 10, Example 6 numbering): 6 µM
COC(=O)c1cccc(-c2ccc(NC3OC(CO)C(O)C(O)C3O)cc2)c1 (stereo not shown) [Compound 4ZFH44, methyl 3-[4-[[3,4,5-trihydroxy-6-(hydroxymethyl)tetrahydropyran-2-yl]amino]phenyl]benzoate]	4.000	–
COC(=O)c1ccc(-c2ccc(O[C@H]3O[C@H](CO)[C@@H](O)[C@H](O)[C@@H]3O)cc2)s1 [Compound 13b, Methyl 5-[4-[(2R,3S,4S,5S,6R)-3,4,5-trihydroxy-6-(hydroxymethyl)tetrahydropyran-2-yl]oxyphenyl]thiophene-2-carboxylate]	–	HAI Titer EC>90 [1]: 1.0 µM
N#Cc1ccc(-c2ccc(OC3OC(CO)C(O)C(O)C3O)cc2)cc1 (stereo not shown) [Compound 3ZFH70, 4-[4-[3,4,5-trihydroxy-6-(hydroxymethyl)tetrahydropyran-2-yl]oxyphenyl]benzonitrile]	8.000	–
CNS(=O)(=O)c1ccccc1-c1ccc(OC2OC(CO)C(O)C(O)C2O)cc1 (stereo not shown) [Compound 3ZFH176, N-methyl-2-[4-[3,4,5-trihydroxy-6-(hydroxymethyl)tetrahydropyran-2-yl]oxyphenyl]benzenesulfonamide]	4.000	–
CS(=O)(=O)Nc1ccccc1-c1ccc(OC2OC(CO)C(O)C(O)C2O)cc1 (stereo not shown) [Compound 3ZFH163, N-[2-[4-[3,4,5-trihydroxy-6-(hydroxymethyl)tetrahydropyran-2-yl]oxyphenyl]phenyl]methanesulfonamide]	12.000	–
COC(=O)c1cc2cc(OC3OC(CO)C(O)C(O)C3O)ccc2s1 (stereo not shown) [Compound 2ZFH297, methyl 5-[3,4,5-trihydroxy-6-(hydroxymethyl)tetrahydropyran-2-yl]oxybenzothiophene-2-carboxylate]	2.000	–
OCC1OC(Oc2ccc(Br)cc2)C(O)C(O)C1O (stereo not shown) [Compound 2ZFH46, 2-(4-bromophenoxy)-6-(hydroxymethyl)tetrahydropyran-3,4,5-triol]	32.000	–
CCCCO[C@H]1O[C@H](CO)[C@@H](O)[C@H](O)[C@@H]1O [butyl-α-D-mannoside, reference compound]	–	EC90 (read-out: HAI Titer EC90): 125 µM
OCC1OC(Oc2ccc(-c3ccncc3)cc2)C(O)C(O)C1O (stereo not shown) [Compound 3ZFH96, 2-(hydroxymethyl)-6-[4-(4-pyridyl)phenoxy]tetrahydropyran-3,4,5-triol]	2.000	–
OCC1OC(Oc2ccc(-c3cccc(O)c3)cc2)C(O)C(O)C1O (stereo not shown) [Compound 3ZFH44, 2-(hydroxymethyl)-6-[4-(3-hydroxyphenyl)phenoxy]tetrahydropyran-3,4,5-triol]	4.000	–
O=C(NCCCCCCCCNC(=O)c1cccc(-c2ccc(OC3OC(CO)C(O)C(O)C3O)cc2)c1)c1cccc(-c2ccc(OC3OC(CO)C(O)C(O)C3O)cc2)c1 (stereo not shown) [Compound 2ZFH234, 3-[4-[3,4,5-trihydroxy-6-(hydroxymethyl)tetrahydropyran-2-yl]oxyphenyl]-N-[8-[[3-[4-[3,4,5-trihydroxy-6-(hydroxymethyl)tetrahydropyran-2-yl]oxyphenyl]benzoyl]amino]octyl]benzamide]	2.00	–
COC(=O)c1cccc(-c2ccc(NC(=O)C3OC(CO)C(O)C(O)C3O)cc2)c1 (stereo not shown) [Compound 4ZFH89, methyl 3-[4-[[3,4,5-trihydroxy-6-(hydroxymethyl)tetrahydropyran-2-carbonyl]amino]phenyl]benzoate]	16.000	–
COC(=O)c1cncc(-c2ccc(O[C@H]3O[C@H](CO)[C@@H](O)[C@H](O)[C@@H]3O)cc2)c1 [Compound 12b, Methyl 5-[4-[(2R,3S,4S,5S,6R)-3,4,5-trihydroxy-6-(hydroxymethyl)tetrahydropyran-2-yl]oxyphenyl]pyridine-3-carboxylate]	–	HAI Titer EC>90 [1]: 0.19 µM
